Measured values taken from patent US9017725B2, “Topical drug delivery systems for ophthalmic use” (Aurinia Pharmaceuticals Inc., priority 2009, dated 2015).
≈ marks a conversion by molar mass, not a printed value.

Test: Aqueous solubility and solubility in mixed nanomicellar formulation
Assay type: physicochemical
Details: for solubility: mixed nanomicellar formulation, aqueous with cosolvent or surfactant or cyclodextrin
Procedure: The ethanolic solution was evaporated under vacuum to get a thin film near-solid matter. Deionized water, 25 mL, was added to the thin film near-solid matter and sonicated for approximately 20 min to ensure complete formation of mixed micelles. The prepared 2× formulation was stored at room temperature.

improvement of solubility (mixed nanomicellar formulation versus aqueous solubility) | solubility [µg/mL] | improvement of solubility (mixed nanomicellar formulation (4 mg/mL) versus aqueous solubility) | SMILES
about 6.2 fold | 1000 (≈ 2.55 mM) |  | C[C@@H]1C[C@H]2[C@@H]3CCC4=CC(=O)C=C[C@]4(C)[C@@]3(F)[C@@H](O)C[C@]2(C)[C@@]1(O)C(=O)CO [dexamethasone]
 | 4000 (≈ 4.38 mM) | up to 2000 fold | CO[C@H]1C[C@@H]2CC[C@@H](C)[C@@](O)(O2)C(=O)C(=O)N2CCCC[C@H]2C(=O)O[C@H]([C@H](C)C[C@@H]2CC[C@@H](O)[C@H](OC)C2)CC(=O)[C@H](C)/C=C(\C)[C@@H](O)[C@@H](OC)C(=O)[C@H](C)C[C@H](C)/C=C/C=C/C=C/1C [rapamycin]
